Assay results published in patent US9540337B2, “Gamma-glutamyl transpeptidase inhibitors and methods of use” (The Board of Regents of the University of Oklahoma, priority 2012, dated 2017).
Where “and” joins values, the source holds several entries; their conditions need not be identical. Equal entries are not always repeated. Where two headings read alike, the source gives them in different places.

What was measured:
[1] = molecular target: T1, hGGT (Homo sapiens, UniProt P19440); assay: L-Glutamate Release Assay (Hydrolysis of GSH); format: biochemical; details: for Ki: GSH hydrolysis, read-out: GSH Kii
T1 construct: lacking the transmembrane domain; made in house; host or cells: Pichia pastoris
T1 sequence (P19440 381-569 limits assumed): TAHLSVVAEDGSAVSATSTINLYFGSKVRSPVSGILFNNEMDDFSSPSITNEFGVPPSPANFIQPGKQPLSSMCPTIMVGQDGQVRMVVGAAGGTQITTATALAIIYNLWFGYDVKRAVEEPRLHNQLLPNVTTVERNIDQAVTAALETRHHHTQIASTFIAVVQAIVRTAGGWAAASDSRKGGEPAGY
T1 sequence (P19440 27-380 limits assumed): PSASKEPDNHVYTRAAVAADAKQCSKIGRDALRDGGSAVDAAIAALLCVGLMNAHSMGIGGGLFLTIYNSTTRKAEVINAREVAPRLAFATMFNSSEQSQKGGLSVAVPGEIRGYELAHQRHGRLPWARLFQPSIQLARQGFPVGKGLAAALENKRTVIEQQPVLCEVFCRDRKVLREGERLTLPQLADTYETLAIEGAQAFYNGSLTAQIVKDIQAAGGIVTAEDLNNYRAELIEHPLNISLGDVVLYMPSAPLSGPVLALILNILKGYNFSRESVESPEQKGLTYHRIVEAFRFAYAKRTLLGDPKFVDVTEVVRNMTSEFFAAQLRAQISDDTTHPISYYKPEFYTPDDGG
Experimental: L-Glutamate Release Assay (Hydrolysis of GSH): This assay measures the production of glutamate from the hydrolysis of GSH by GGT enzyme and has been described in detail previously. The concentration of the substrate, GSH, was varied from 5 μM to 20 μM. The concentration of the inhibitors, OU749 and its analogs, were varied from 15.6 μM to 250 μM. The reaction was initiated with the addition of 10 mU hGGT. […] All compounds were also evaluated as inhibitors of glutamate dehydrogenase, the enzyme in the second half of the L-glutamate release assay. None of the compounds in this study inhibited glutamate dehydrogenase.

[2] = molecular target: T2, Human GGT1 (hGGT) (Homo sapiens, UniProt P19440); assay: L-GpNA Transpeptidation Assay with GlyGly as acceptor; format: biochemical; design: lacking the transmembrane domain; made in house; host or cells: Pichia pastoris; details: for fold change in L-GpNA Kii (transpeptidation) relative to Compound 16: weaker than Compound 16
T2 sequence (P19440 381-569 limits assumed): as the sequence (P19440 381-569 limits assumed) above
T2 sequence (P19440 27-380 limits assumed): as the sequence (P19440 27-380 limits assumed) above
Experimental: Transpeptidation Reaction: The same assay buffer was used for both the hydrolysis reaction and the transpeptidation reaction. The transpeptidation reaction included 40 mM glycylglycine (glygly, Sigma, St. Louis, Mo.) as the acceptor. […] The concentration of L-GpNA was 3 mM for experiments in which the concentration of glygly was varied. To initiate the transpeptidation reaction, 4 mU GGT were added.
1. […] 3 and 4. […] 5 (25).
L-GpNA Transpeptidation Assay: The assay has been described previously. […] The concentration of L-GpNA was 3 mM for experiments in which the concentration of GlyGly was varied. To initiate the transpeptidation reaction, 4 mU GGT were added.

[3] = molecular target: T2, Human GGT1 (hGGT); assay: D-GpNA Hydrolysis Assay (release of pNA, 405 nm, pH 7.4); details: for fold less effective than OU749 in inhibiting hydrolysis of D-GpNA: relative to OU749; for Vo (maximum velocity at zero activator) / V∞ (maximum rate at infinite activator): Hydrolysis D-GpNA, Table 3; for maximal fold induction: human
Experimental: (§1) Enzyme Isolation: Human GGT1 (P19440), lacking the transmembrane domain, was expressed in Pichia pastoris and isolated as previously described (14). […] One unit of GGT activity was defined as the amount of enzyme that released 1 μmol of paranitroaniline/min at 37° C. at pH 7.4 in the transpeptidation reaction.
The reaction was initiated with the addition of 19 mU GGT. The reaction was incubated at 37° C. and monitored continuously at 405 nm by a Bio-Rad model 680 microplate reader with Microplate Manager 5.2 software (Bio-Rad, Hercules, Calif.).
Data Analysis: Samples in each experiment were run in triplicate. Each inhibitor was evaluated in two or more independent experiments. Double reciprocal plots were generated to assess data quality and determine the correct rate equation for data fitting. Data were fitted using the proper rate equation and the Marquardt-Levenberg algorithm supplied with the Enzfitter program (BIOSOFT, Cambridge, UK). Kinetic parameters with standard errors were estimated using a simple weighting method.
Data adhering to Michaelis-Menten Kinetics were fitted to eq. 1. Data for initial rate patterns with D-, L-GpNA varied at different fixed levels of glygly were fitted to eq. […] Data for competitive and uncompetitive inhibition were fitted to eqs. 3 and 4. Data for the dependence of Vmax and Vmax/KD-GpNA on the concentration of activator were fitted using eq. 5 (25).
In eqs 1-6, Vmax are the initial and maximum rates, respectively, Ka and Kb are Michaelis constants for substrates A and B, respectively, and Kis and Kii are slope and intercept inhibition constants. In eq. 5, a is the value of Vmax or Vmax/KD-GpNA at zero activator/inhibitor, KID is the activation or inhibition constant, and KIN is a constant that causes the parameter to go to a constant value at infinite concentrations of X, the activator/inhibitor. The product a(KID/KIN) is the value of Vmax or Vmax/KD-GpNA at infinite activator/inhibitor (25). Data for noncompetitive inhibition were fitted to eq. 6. Data for the dependence of Vmax and Vmax/KD-GpNA on the concentration of activator were fitted using […].
as §1, with “hGGT” for “Human GGT1”, “described.” for “described (14).”, “reaction with L-GpNA.” for “reaction.”
D-GpNA Hydrolysis Assay: The assay was carried out as previously described. […] The reaction was initiated with the addition of 19 mU GGT as determined by the L-GpNA transpeptidation assay. The reaction was incubated at 37° C. and monitored continuously at 405 nm.

[4] = GlyGly varied, 3 mM L-GpNA, Table 2, read-out: Transpeptidation GlyGly Kis
[5] = L-GpNA varied, 40 mM GlyGly, Table 2, read-out: Transpeptidation L-GpNA Kii
[6] = pH 7.4, read-out: Fold Activation
[7] = read-out: activation of the Vmax for hydrolysis (V∞/Vo)
[8] = Table 3, read-out: Transpeptidation GlyGly Kis
[9] = Table 3, read-out: Transpeptidation L-GpNA Kii

SMILES | Ki ([1]; Table 4) | Ki [2, 4] | Ki [3] | Ki [2, 5] | also measured
COc1ccc(Cc2nnc(NS(=O)(=O)c3ccccc3)s2)cc1 [Compound 1] | 376 ± 50 µM | 54.1 ± 3.9 µM |  |  | 
COc1ccc(Cc2nnc(NS(=O)(=O)c3ccc(C)cc3)s2)cc1 [Compound 2] | 506 ± 75 µM | 10 ± 0.4 µM | 73.3 ± 4 µM | 22.7 ± 0.5 µM | fold less potent than OU749 in inhibiting GSH hydrolysis ([1]; relative to OU749): 1.3 fold
COc1ccc(Cc2nnc(NS(=O)(=O)c3ccc(Cl)cc3Cl)s2)cc1 [Compound 4] |  | 3.7 ± 1 µM | 75.6 ± 7.2 µM | 15.7 ± 0.7 µM | Ki ([1]; Table 6): 950 ± 242 µM
COc1ccc(Cc2nnc(NS(=O)(=O)c3ccc(NO)cc3)s2)cc1 [Compound 5] |  | 25.7 ± 1.3 µM | 149 ± 13.6 µM | 64.4 ± 5.1 µM | fold less effective than OU749 in inhibiting hydrolysis of D-GpNA [3]: 2-5 fold
COc1ccc(Cc2nnc(NS(=O)(=O)c3ccc(C(C)(C)C)cc3)s2)cc1 [Compound 7] | > 250 µM | 143 ± 8.7 µM | 341 ± 6.4 µM | 150 ± 13 µM | fold less effective than OU749 in inhibiting hydrolysis of D-GpNA [3]: 2-5 fold
COc1ccc(Cc2nnc(NS(=O)(=O)c3ccc(Cl)c(Cl)c3)s2)cc1 [Compound 8] |  | 10.8 ± 0.8 µM | 3160 ± 90 µM | 18.2 ± 0.7 µM | Ki ([1]; Table 6): > 250 µM
COc1ccc(Cc2nnc(NS(=O)(=O)c3ccc(OC)cc3)s2)cc1 [Compound 9] | > 250 µM | 133 ± 10.3 µM | 3800 ± 720 µM |  | Ki ([2]; Table 4, read-out: L-GpNA with GlyGly Kii): 149 ± 23 µM
COc1ccc(Cc2nnc(NS(=O)(=O)c3ccc(Cl)cc3)s2)cc1 [Compound 10] |  | 13.4 ± 0.8 µM |  | 32.5 ± 0.9 µM | Ki ([1]; Table 6): > 250 µM; Ki ([3]; read-out: Hydrolysis D-GpNA Kii, D-GpNA substrate, Table 2): 5530 ± 1460 µM
COc1ccc(Cc2nnc(NS(=O)(=O)c3ccc([N+](=O)[O-])cc3)s2)cc1 [Compound 11] |  | 96 µM and 95.7 µM |  | 93 µM and 92.8 µM | Vo (maximum velocity at zero activator) [3]: 1.59 ± 0.14 mM/min/nM; V∞ (maximum rate at infinite activator) [3]: 8.63 ± 1.21 mM/min/nM; maximal fold induction [3, 6]: 5.43 ± 2.04; difference in affinity for D-γ-glutamyl and L-γ-glutamyl enzyme intermediates ([2]; human): 2.5 fold; fold change in GlyGly Kis (transpeptidation) relative to Compound 16 ([2]; increase relative to Compound 16): more than 2 fold; fold change in L-GpNA Kii (transpeptidation) relative to Compound 16 [2]: less than 2 fold
COc1ccc(Cc2nnc(NS(=O)(=O)c3ccc(C(F)(F)F)cc3)s2)cc1 [Compound 12] |  | 46.3 ± 3.5 µM |  | 117 ± 7.4 µM | 
O=[N+]([O-])c1ccc(S(=O)(=O)Nc2nnc(Cc3ccccc3)s2)cc1 [Compound 13] |  |  |  |  | Vo (maximum velocity at zero activator) [3]: 1.59 ± 0.06 mM/min/nM; V∞ (maximum rate at infinite activator) [3]: 9.09 ± 0.55 mM/min/nM; maximal fold induction [3, 6]: 5.72 ± 0.32; maximal fold induction [3, 7]: 3 to 6; Ki [2, 8]: 59.6 ± 3.7 µM; Ki [2, 9]: 111 ± 5.5 µM; fold change in L-GpNA Kii (transpeptidation) relative to Compound 16 [2]: ~2 fold
O=[N+]([O-])c1ccc(Cc2nnc(NS(=O)(=O)c3ccc([N+](=O)[O-])cc3)s2)cc1 [Compound 14] |  |  |  |  | Vo (maximum velocity at zero activator) [3]: 1.27 ± 0.01 mM/min/nM; V∞ (maximum rate at infinite activator) [3]: 5.08 ± 0.41 mM/min/nM; maximal fold induction [3, 6]: 4 ± 0.11; maximal fold induction [3, 7]: 3 to 6; Ki [2, 8]: 81.2 ± 8.8 µM; Ki [2, 9]: 132 ± 5.5 µM
